In ChEMBL document CHEMBL1201862, “PubChem BioAssay data set” (2004):
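Dose response: 5 concentrations. Exposure: 48 h. Format: 96-well plates. Endpoint: linear interpolation; highest concentration if not reached. The concentration for 50% growth inhibition is given as GI50.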 The source made the active and inactive calls. Cut-off read from the data, not from the text of the source: active = GI50 up to about 1.1 µM and inactive = higher.

Legend:
Test in all cases: growth of human tumour cells (NCI), 48 h
[1] = tested on: HT-29
[2] = tested on: MDA-MB-231
[3] = tested on: OVCAR-3
[4] = tested on: CAKI-1
[5] = tested on: MDA-MB-435
[6] = tested on: PC-3
[7] = tested on: SF-268
[8] = tested on: LOX IMVI
[9] = tested on: T47D
[10] = tested on: SW-620
[11] = tested on: CCRF-CEM
[12] = tested on: SN12C
[13] = tested on: HCT-116
[14] = tested on: SK-OV-3
[15] = tested on: SK-MEL-28
[16] = tested on: RXF 393
[17] = tested on: HCT-15
[18] = tested on: A498
[19] = tested on: NCI-H23
[20] = tested on: SF-295
[21] = tested on: K562
[22] = tested on: COLO 205
[23] = tested on: NCI/ADR-RES
[24] = tested on: OVCAR-5
[25] = tested on: SNB-19
[26] = tested on: SNB-75
[27] = tested on: EKVX
[28] = tested on: HL-60
[29] = tested on: NCI-H460
[30] = tested on: M14
[31] = tested on: DU-145
[32] = tested on: Hs-578T
[33] = tested on: KM12
[34] = tested on: HCC 2998
[35] = tested on: UACC-257
[36] = tested on: Malme-3M
[37] = tested on: MCF7
[38] = tested on: ACHN
[39] = tested on: NCI-H226
[40] = tested on: HOP-92
[41] = tested on: UACC-62
[42] = tested on: OVCAR-4
[43] = tested on: BT-549
[44] = tested on: A549
[45] = tested on: OVCAR-8
[46] = tested on: 786-0
[47] = tested on: HOP-62
[48] = tested on: SF-539
[49] = tested on: SK-MEL-5
[50] = tested on: U-251
[51] = tested on: MDA-N
[52] = tested on: TK-10
[53] = tested on: SK-MEL-2
[54] = tested on: UO-31
[55] = tested on: SR
[56] = tested on: RPMI-8226
[57] = tested on: IGROV-1
[58] = tested on: MOLT-4
[59] = tested on: NCI-H522

Measured: GI50

CC1CC[C@@]2(OC1)OC1CC3C4CCC5C[C@@H](OC6OC(CO)C(OC7OC(CO)C(O)C(OC8OC(CO)C(O)C(OC9OC(CO)C(O)C(O)C9O)C8O)C7OC7OC(CO)C(O)C(O)C7O)C(O)C6O)[C@H](O)C[C@]5(C)C4CC[C@]3(C)C1[C@@H]2C (some centres not stated)
> 80.5 µM: [17]
inactive: [1] > 80.5 µM | [2] > 80.5 µM | [3] > 80.5 µM | [4] > 80.5 µM | [5] > 80.5 µM | [6] > 80.5 µM | [7] > 80.5 µM | [8] > 80.5 µM | [9] > 80.5 µM | [10] > 80.5 µM | [11] > 80.5 µM | [12] > 80.5 µM | [13] > 80.5 µM | [14] > 80.5 µM | [15] > 80.5 µM | [16] > 80.5 µM | [18] > 80.5 µM | [19] > 80.5 µM | [20] > 80.5 µM | [21] > 80.5 µM | [22] > 80.5 µM | [23] > 80.5 µM | [24] > 80.5 µM | [25] > 80.5 µM | [26] > 80.5 µM | [27] > 80.5 µM | [28] > 80.5 µM | [29] > 80.5 µM | [30] > 80.5 µM | [31] > 80.5 µM | [32] > 80.5 µM | [33] > 80.5 µM | [34] > 80.5 µM | [35] > 80.5 µM | [36] > 80.5 µM | [37] > 80.5 µM | [38] > 80.5 µM | [39] > 80.5 µM | [40] > 80.5 µM | [41] > 80.5 µM | [42] > 80.5 µM | [43] > 80.5 µM | [44] > 80.5 µM | [45] > 80.5 µM | [46] > 80.5 µM | [47] > 80.5 µM | [48] > 80.5 µM | [49] > 80.5 µM | [50] > 80.5 µM | [51] > 80.5 µM | [52] > 80.5 µM

OC(COC(c1ccccc1)(c1ccccc1)c1ccccc1)C(O)CC1SCCS1 (configuration not stated)
inactive: [1] 12.4 µM | [53] 11.5 µM | [2] 16.2 µM | [3] 22.2 µM | [4] 21.3 µM | [5] 26.2 µM | [6] 11.8 µM | [7] 25.4 µM | [8] 13.5 µM | [9] 14.1 µM | [10] 29 µM | [54] 10.9 µM | [11] 21.3 µM | [12] 17.7 µM | [13] 16.4 µM | [14] 19 µM | [15] 21.5 µM | [16] 10.2 µM | [18] 13.9 µM | [19] 17.9 µM | [21] 13.5 µM | [22] 14.7 µM | [23] 16.3 µM | [24] 19.2 µM | [25] 21.7 µM | [27] 11.2 µM | [28] 13.9 µM | [56] 5.22 µM | [30] 29.6 µM | [31] 17.9 µM | [32] 12.2 µM | [33] 13 µM | [35] 27 µM | [36] 10 µM | [57] 10.2 µM | [37] 21.3 µM | [38] 18.6 µM | [39] 14.9 µM | [58] 8.91 µM | [41] 17.1 µM | [43] 20 µM | [45] 19.3 µM | [46] 17.6 µM | [47] 12 µM | [48] 18.7 µM | [49] 16.7 µM | [50] 21.8 µM | [51] 19 µM | [52] 21 µM
active: [55] 0.0275 µM
21.8 µM: [17]

O=C1NC2=NOC(=O)NC2=NO1
inactive: [1] > 200 µM | [53] > 200 µM | [2] > 200 µM | [3] > 200 µM | [4] > 200 µM | [5] > 200 µM | [6] > 200 µM | [7] > 200 µM | [8] > 200 µM | [9] > 200 µM | [10] > 200 µM | [54] > 200 µM | [11] > 200 µM | [12] > 200 µM | [13] > 200 µM | [14] > 200 µM | [15] > 200 µM | [16] > 200 µM | [18] > 200 µM | [19] > 200 µM | [20] > 200 µM | [21] > 200 µM | [22] > 200 µM | [23] > 200 µM | [24] > 200 µM | [25] > 200 µM | [26] > 200 µM | [27] > 200 µM | [28] > 200 µM | [29] > 200 µM | [56] > 200 µM | [30] > 200 µM | [31] > 200 µM | [32] > 200 µM | [33] > 200 µM | [34] > 200 µM | [35] > 200 µM | [36] > 200 µM | [57] > 200 µM | [37] > 200 µM | [38] > 200 µM | [39] > 200 µM | [40] > 200 µM | [58] > 200 µM | [41] > 200 µM | [42] > 200 µM | [43] > 200 µM | [44] > 200 µM | [45] > 200 µM | [46] > 200 µM | [47] > 200 µM | [48] > 200 µM | [49] > 200 µM | [59] > 200 µM | [50] > 200 µM | [51] > 200 µM | [52] > 200 µM
> 200 µM: [17]

CC(C)(C)OC(=O)c1ccc(NCC2=C(Br)C(=O)C=CC2=O)cc1
15.6 µM: [17]
inactive: [1] 17.5 µM | [53] 28.6 µM | [2] 19.1 µM | [3] 10.6 µM | [4] 11.6 µM | [5] 18.8 µM | [6] 27.4 µM | [7] 19.6 µM | [8] 14.7 µM | [9] 17.5 µM | [10] 16.4 µM | [54] 14 µM | [11] 2.42 µM | [12] 18.7 µM | [13] 17.7 µM | [14] > 64.9 µM | [15] 19.6 µM | [16] 13.7 µM | [19] 19.6 µM | [20] 65.9 µM | [55] 11.7 µM | [21] 11.7 µM | [22] 18.2 µM | [23] 20.1 µM | [24] 23.1 µM | [25] > 54.7 µM | [26] 39.5 µM | [27] 19.7 µM | [28] 1.79 µM | [29] 36.3 µM | [56] 10.3 µM | [30] 27.5 µM | [31] 35.7 µM | [32] 19.1 µM | [33] 33.3 µM | [34] 21.5 µM | [35] 21.7 µM | [36] 14.9 µM | [57] 24.2 µM | [37] 19.3 µM | [38] 17.9 µM | [39] 22.1 µM | [40] 14.5 µM | [58] 1.42 µM | [41] 16.6 µM | [42] 14.1 µM | [43] 11.4 µM | [44] 57.8 µM | [45] 16.5 µM | [46] 17.5 µM | [47] 37 µM | [48] 21.5 µM | [49] 15.9 µM | [59] 4.47 µM | [50] 22.3 µM | [51] 20 µM | [52] 22.1 µM

Nc1ccc(Oc2ccc(C34CC5CC(C3)CC(c3ccc(Oc6ccc(N)cc6C(F)(F)F)cc3)(C5)C4)cc2)c(C(F)(F)F)c1
31.8 µM: [17]
inactive: [1] 17.2 µM | [53] 14.1 µM | [2] 15.2 µM | [3] 17.9 µM | [4] 28.1 µM | [5] 24.2 µM | [6] 14.8 µM | [7] 17.4 µM | [8] 17.9 µM | [9] 15.1 µM | [10] 36.3 µM | [54] 39.1 µM | [11] 36.1 µM | [12] 31.1 µM | [13] 24.9 µM | [14] 15.6 µM | [15] 43.3 µM | [16] 11.1 µM | [18] 18.3 µM | [19] 17.7 µM | [20] 25.3 µM | [21] 44 µM | [22] 19.1 µM | [23] 21.7 µM | [24] 27 µM | [25] 22.5 µM | [27] 15.5 µM | [28] 24.2 µM | [29] 18.4 µM | [30] 16.9 µM | [31] 35.2 µM | [32] 17.1 µM | [33] 21 µM | [35] 18.7 µM | [36] 22.2 µM | [57] 19.5 µM | [37] 13.4 µM | [38] 32.9 µM | [39] 19.4 µM | [58] 35.7 µM | [41] 22.1 µM | [42] 36.6 µM | [43] 21.9 µM | [44] 19.1 µM | [45] 16 µM | [46] 31.6 µM | [47] 18.2 µM | [49] 22 µM | [59] 14.4 µM | [50] 14.5 µM | [51] 36.6 µM | [52] 16.1 µM
